Test results from paper PMC6073568, “Efficient Lead Finding, Activity Enhancement and Preliminary Selectivity Control of Nuclear Receptor Ligands Bearing a Phenanthridinone Skeleton” (International Journal of Molecular Sciences, 2018).
pIC50: −log10 of the molar value. Like-named read-outs stand apart in the source and are kept apart here.

Key:
[1] = target: T1, GR (Homo sapiens, UniProt P04150); assay: GR reporter gene assay in HEK293; type: cell-based; conditions: reporter gene assay, HEK293; agonist dexamethasone 1 nM; read-out: GR antagonistic activity (IC50)
T1 construct: expressed in transfected cells; host or cells: HEK293
T1 sequence (P04150 1-777): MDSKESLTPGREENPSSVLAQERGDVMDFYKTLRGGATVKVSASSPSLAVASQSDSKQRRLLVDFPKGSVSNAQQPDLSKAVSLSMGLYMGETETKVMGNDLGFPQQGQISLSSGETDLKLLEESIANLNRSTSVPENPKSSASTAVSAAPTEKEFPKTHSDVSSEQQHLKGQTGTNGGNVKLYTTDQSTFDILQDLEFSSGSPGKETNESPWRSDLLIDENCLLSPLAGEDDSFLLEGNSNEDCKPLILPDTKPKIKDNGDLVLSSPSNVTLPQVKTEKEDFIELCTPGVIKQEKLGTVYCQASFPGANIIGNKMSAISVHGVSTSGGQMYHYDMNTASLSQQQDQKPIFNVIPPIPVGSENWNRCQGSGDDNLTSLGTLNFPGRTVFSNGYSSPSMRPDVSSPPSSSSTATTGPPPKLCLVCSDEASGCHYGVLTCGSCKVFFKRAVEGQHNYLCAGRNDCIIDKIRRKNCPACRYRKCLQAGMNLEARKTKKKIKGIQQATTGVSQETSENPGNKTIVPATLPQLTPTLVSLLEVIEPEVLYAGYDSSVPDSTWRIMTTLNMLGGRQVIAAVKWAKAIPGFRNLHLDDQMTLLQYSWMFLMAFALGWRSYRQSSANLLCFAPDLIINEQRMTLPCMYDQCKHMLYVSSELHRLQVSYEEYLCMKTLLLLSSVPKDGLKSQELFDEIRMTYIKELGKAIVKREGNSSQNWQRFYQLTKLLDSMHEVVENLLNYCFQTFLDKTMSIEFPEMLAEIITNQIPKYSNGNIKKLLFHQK

[2] = target: T2, LXRα (Homo sapiens, UniProt Q13133); assay: LXRα reporter gene assay in HEK293; type: cell-based; conditions: read-out: LXRα antagonistic activity (IC50)
T2 construct: CMX-GAL4N-hLXRα-LBD; expressed in transfected cells; host or cells: HEK293
T2 sequence (Q13133 209-447 limits assumed): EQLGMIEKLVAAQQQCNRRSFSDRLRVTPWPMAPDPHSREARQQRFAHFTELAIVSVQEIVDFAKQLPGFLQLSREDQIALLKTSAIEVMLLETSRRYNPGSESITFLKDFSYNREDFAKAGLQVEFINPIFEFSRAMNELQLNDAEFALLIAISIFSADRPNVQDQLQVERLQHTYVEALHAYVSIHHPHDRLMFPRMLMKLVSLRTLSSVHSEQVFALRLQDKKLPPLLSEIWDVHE

[3] = target: T3, PR (Homo sapiens, UniProt P06401); assay: T-47D alkaline phosphatase assay (PR antagonism); type: cell-based; conditions: compared with 7
T3 sequence (P06401 1-933): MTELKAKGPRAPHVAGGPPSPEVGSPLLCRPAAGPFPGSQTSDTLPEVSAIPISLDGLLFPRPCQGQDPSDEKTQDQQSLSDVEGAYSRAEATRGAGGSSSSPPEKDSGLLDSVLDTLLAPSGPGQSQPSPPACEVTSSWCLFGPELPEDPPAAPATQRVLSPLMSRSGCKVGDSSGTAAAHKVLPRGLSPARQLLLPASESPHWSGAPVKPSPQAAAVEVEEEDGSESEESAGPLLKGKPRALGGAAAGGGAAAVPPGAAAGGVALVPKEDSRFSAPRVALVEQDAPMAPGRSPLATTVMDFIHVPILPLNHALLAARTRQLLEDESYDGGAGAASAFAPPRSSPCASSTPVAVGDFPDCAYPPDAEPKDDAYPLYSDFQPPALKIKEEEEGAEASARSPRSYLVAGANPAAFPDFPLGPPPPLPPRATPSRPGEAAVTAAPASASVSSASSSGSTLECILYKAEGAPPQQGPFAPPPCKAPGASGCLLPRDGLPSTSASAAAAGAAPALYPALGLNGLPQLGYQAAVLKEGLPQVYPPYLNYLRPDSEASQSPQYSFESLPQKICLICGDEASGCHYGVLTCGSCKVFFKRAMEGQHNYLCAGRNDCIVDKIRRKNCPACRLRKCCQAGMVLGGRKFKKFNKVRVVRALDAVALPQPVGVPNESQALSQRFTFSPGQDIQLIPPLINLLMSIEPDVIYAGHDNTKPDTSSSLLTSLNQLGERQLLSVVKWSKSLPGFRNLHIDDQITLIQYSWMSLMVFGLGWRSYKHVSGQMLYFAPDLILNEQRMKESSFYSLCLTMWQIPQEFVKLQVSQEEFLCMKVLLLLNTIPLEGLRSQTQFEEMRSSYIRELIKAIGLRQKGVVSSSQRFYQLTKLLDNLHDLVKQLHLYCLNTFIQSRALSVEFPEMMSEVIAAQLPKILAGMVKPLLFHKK

[4] = target: T4, LXRβ (Homo sapiens, UniProt P55055); assay: LXRβ reporter gene assay in HEK293; type: cell-based; conditions: read-out: LXRβ antagonistic activity (IC50)
T4 construct: CMX-GAL4N-hLXRβ-LBD; expressed in transfected cells; host or cells: HEK293
T4 sequence (P55055 222-460 limits assumed): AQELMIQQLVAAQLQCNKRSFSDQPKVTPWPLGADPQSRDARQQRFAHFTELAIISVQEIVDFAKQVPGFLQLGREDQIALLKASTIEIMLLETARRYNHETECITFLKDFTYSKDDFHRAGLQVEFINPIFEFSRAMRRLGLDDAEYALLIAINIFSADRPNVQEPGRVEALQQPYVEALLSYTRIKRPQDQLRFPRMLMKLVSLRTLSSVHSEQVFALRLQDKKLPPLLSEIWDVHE

[5] = target: T5, AR (Homo sapiens, UniProt P10275); assay: AR reporter gene assay in HEK293; type: cell-based; conditions: for pIC50: reporter gene assay, HEK293
T5 sequence (P10275 1-920): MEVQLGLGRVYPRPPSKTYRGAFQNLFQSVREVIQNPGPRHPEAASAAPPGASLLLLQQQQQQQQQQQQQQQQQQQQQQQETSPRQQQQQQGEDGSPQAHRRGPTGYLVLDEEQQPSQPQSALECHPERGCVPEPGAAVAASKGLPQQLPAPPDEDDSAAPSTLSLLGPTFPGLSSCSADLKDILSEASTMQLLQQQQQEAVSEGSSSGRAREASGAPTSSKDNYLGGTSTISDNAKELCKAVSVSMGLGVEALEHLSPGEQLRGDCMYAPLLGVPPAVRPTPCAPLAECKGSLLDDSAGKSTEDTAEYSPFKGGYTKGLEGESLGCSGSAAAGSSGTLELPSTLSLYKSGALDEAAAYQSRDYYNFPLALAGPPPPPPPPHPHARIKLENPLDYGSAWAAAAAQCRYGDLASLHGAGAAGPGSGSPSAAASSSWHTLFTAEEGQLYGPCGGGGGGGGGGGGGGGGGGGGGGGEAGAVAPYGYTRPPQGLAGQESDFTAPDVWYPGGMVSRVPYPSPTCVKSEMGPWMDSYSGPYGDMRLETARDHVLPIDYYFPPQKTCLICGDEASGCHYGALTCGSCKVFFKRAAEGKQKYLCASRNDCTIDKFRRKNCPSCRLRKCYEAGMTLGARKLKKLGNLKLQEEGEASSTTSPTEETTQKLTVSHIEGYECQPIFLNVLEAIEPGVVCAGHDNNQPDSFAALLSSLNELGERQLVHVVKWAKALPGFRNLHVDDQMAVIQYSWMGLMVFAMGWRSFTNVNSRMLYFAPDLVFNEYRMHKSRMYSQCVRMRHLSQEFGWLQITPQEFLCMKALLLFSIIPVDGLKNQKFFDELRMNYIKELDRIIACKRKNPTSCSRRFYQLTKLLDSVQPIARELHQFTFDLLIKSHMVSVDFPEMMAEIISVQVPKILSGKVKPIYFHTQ

[6] = target: T3, PR; conditions: alkaline phosphatase, T47D cells, progesterone 1 nM; read-out: PR antagonistic activity (IC50); cited from earlier work
[7] = agonist dihydrotestosterone 0.3 nM, read-out: AR antagonistic activity (IC50), AR reporter gene

| SMILES | pIC50 [1] | pIC50 [2] | increase of PR activity [3] | pIC50 [4] | selectivity for AR over LXRs [5] | selectivity for AR over PR [5] | selectivity for AR over RORs and GR [5] | increase of AR activity ([5]; compared with 7) | pIC50 [5, 7] | pIC50 ([5]; read-out: AR antagonistic activity IC50) | pIC50 [6] |
| --- | --- | --- | --- | --- | --- | --- | --- | --- | --- | --- | --- |
| CCCCn1c(=O)c2ccccc2c2cc(C(O)(C(F)(F)F)C(F)(F)F)ccc21 [Compound 12] | 5.13 | 5.08 | 6 fold | 5.43 | ~50 fold | about 7.8 fold | more than 200 fold | 9 fold | 5.74 | 7.00 | – |
| CCCCn1c(=O)c2ccc(C)cc2c2cc(C(O)(C(F)(F)F)C(F)(F)F)ccc21 [Compound 36] | 4.80 | 4.92 | – | 5.52 | – | – | – | – | 5.19 | – | 5.43 |
